The source of these data is US20250163057A1, “DCN-1 MODULATING COMPOUNDS AND METHODS OF USE THEREOF” (Cellarity, Inc., priority 2023, published 2025).

The target in assay [1] is DCN1 (DCUND1) protein PONY domain (Homo sapiens (Human), UniProt Q96GG9). The experiment in a line: TR-FRET assay, DCN1 binding with FAM-labeled probe. As to conditions: for IC50: TR FRET IC50 1 hr (nM). A digest of the protocol: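 Biotinylated DCN1 PONY domain, labeled with streptavidin-Tb, was competed against a FAM-labeled non-covalent DCN1 inhibitor probe in buffer with TritonX and 200 mM NaCl. Conditions were 5 nM DCN1 with 20 nM FAM-probe, or 0.31 nM DCN1 with 100 nM FAM-plus 800 nM unlabeled probe. The TR-FRET ratio was read at 1, 5 and 24 h (0.1% DMSO).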
In general terms: TR-FRET usually uses a lanthanide donor and a delayed reading to cut background.

In a further assay the target is DCN1 protein (Homo sapiens (Human), UniProt Q96GG9). The experiment in a line: Intact Protein MS Analysis with the RapidFire-TOF System (covalent adduct formation). As to conditions: MS Emax; 400 nM DCN1, 3 hours at room temperature. The assay is classed as binding. A digest of the protocol:
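Tag-cleaved human DCN1 (400 nM) expressed in E. coli, in 25 mM Tris-HCl, 200 mM NaCl, 1 mM DTT, was incubated with 11 compound concentrations for 3 h at room temperature and quenched with 0.2% formic acid. Intact-protein Q-TOF MS with deconvolution detected the compound adduct mass.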

Assay [2] concerns Cullin-3 (CUL3) neddylation. The experiment in a line: AlphaLISA assay for Cullin-3 (CUL3) neddylation in TF 1 cells. The assay is classed as cell-based. As to conditions: Homo sapiens, 3 hours treatment. Put shortly: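 Neddylated CUL3 was quantified by AlphaLISA in lysates of TF 1 cells exposed for 3 h to test compound in IMDM without supplements. Percent inhibition set between vehicle and 1 μM DI-1548 positive control; IC50 derived by Hill-equation fitting of dose-response curves.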

Setting [3] is: 24 hr after treatment with compound, read-out: TR FRET IC50 24 hr.
[4] abbreviates: read-out: TR FRET IC50 1 hr, 1 hr after treatment with compound.
[5] abbreviates: 1 hr after treatment with compound.

pIC50: −log10 of the molar value. Read-outs that look alike come from different tables or passages of the source. Bounds are passed on as bounds.

DCN1 protein, sequence (Q96GG9 whole entry): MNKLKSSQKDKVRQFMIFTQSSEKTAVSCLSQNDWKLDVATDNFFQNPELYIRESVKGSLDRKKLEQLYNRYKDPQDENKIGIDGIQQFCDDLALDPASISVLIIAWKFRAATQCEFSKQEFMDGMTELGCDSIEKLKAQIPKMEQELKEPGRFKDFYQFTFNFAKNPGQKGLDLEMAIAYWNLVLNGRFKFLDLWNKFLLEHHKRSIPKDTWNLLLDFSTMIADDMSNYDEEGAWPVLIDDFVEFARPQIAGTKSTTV
DCN1 (DCUND1) protein PONY domain, sequence (Q96GG9 60-248): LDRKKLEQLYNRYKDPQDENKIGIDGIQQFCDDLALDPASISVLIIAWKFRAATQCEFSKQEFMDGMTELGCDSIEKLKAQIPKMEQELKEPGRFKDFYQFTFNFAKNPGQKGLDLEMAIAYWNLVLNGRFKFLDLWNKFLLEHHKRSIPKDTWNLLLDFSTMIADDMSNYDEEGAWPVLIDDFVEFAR

For `CCN1C(=O)[C@@H](NC(=O)c2cccc(C(F)(F)F)c2)[C@@H](c2ccc(F)cc2)c2c(C(=O)N3CCC[C@H]3C#N)nn(-c3cccc(OCCCN4CCN(C5COC5)CC4)c3)c21` [Compound I-337], the pIC50 (as a rule, the IC50 on a negative log10 scale, so that one unit is a factor of ten) in assay [1] (setting [3]) is ≥ 6.70; in assay [1] (setting [4]) it was ≥ 6.70; in assay [2] (TF-1, 3 h), ≥ 7.00. Besides, the “% Adduct Formation” value on DCN1 protein was “+++ (MS Emax % adduct formation greater than 80.0 and less than or equal to 100.0)”.

For `CCN1C(=O)[C@@H](NC(=O)c2cccc3c2OCCC3)[C@@H](C2CC2)c2c(C(=O)N3[C@H](C#N)C[C@H]4C[C@H]43)nn(C3CCOCC3)c21` [Compound I-394], the pIC50 in assay [1] (setting [3]) is ≥ 6.70; in assay [1] (setting [4]), ≥ 6.70; in assay [2], ≥ 7.00. At DCN1 protein, the “% Adduct Formation” value is “+++ (MS Emax % adduct formation greater than 80.0 and less than or equal to 100.0)”.

In the case of `CCN1C(=O)[C@@H](NC(=O)c2cccc(C(F)(F)F)c2)[C@@H](C2CC2)c2c(C(=O)N3[C@H](C#N)C[C@H]4C[C@H]43)nn(-c3ccccc3)c21` [Compound I-326], the pIC50 in assay [1] (setting [3]) was ≥ 6.70; in assay [1] (setting [4]) it was ≥ 6.70; in assay [2] (TF-1, 3 h), ≥ 7.00. Further, at DCN1 protein, the “% Adduct Formation” value is “+++ (MS Emax % adduct formation greater than 80.0 and less than or equal to 100.0)”.

For `CCN1C(=O)[C@@H](NC(=O)c2cccc(C(F)(F)F)c2)[C@@H](c2ccc(F)cc2)c2c(C(=O)N3CCC[C@H]3C#N)nn(-c3cccc(OCCN(C)C4COC4)c3)c21` [Compound I-347], the pIC50 in assay [1] (setting [3]) was ≥ 6.70; in assay [2] (TF-1, 3 h), ≥ 7.00. In addition, the IC50 (as a rule, the concentration that inhibits the measured activity by half) in assay [1] (setting [5]) lay in the range of 200 to 1000 nM. Besides, on DCN1 protein, the “% Adduct Formation” value was “+++ (MS Emax % adduct formation greater than 80.0 and less than or equal to 100.0)”.

As to `CCN1C(=O)[C@@H](NC(=O)c2cccc(C(F)(F)F)c2)[C@H](c2ccc(F)cc2)c2c(CNC(=O)CC#N)nn(-c3ccccc3)c21` [Compound I-299], the pIC50 is 6.00 to 6.70 in assay [1] (setting [3]); ≥ 6.70 in assay [1] (setting [4]); 6.00 to 7.00 in assay [2] (TF-1, 3 h). Besides, the “% Adduct Formation” value at DCN1 protein is “+ (MS Emax % adduct formation greater than or equal to 0.0 and less than or equal to 30.0)”.

Turning to `CCN1C(=O)[C@@H](NC(=O)c2cccc(C(F)(F)F)c2)[C@@H](c2ccc(F)cc2)c2c(C(=O)N(C)[C@H](C)C#N)nn(-c3ccccc3)c21` (single isomer, unassigned) [Compound I-289, (4S,5S)—N—((R*)-1-cyanoethyl)-7-ethyl-4-(4-fluorophenyl)-N-methyl-6-oxo-1-phenyl-5-(3-(trifluoromethyl)benzamido)-4,5,6,7-tetrahydro-1H-pyrazolo[3,4-b]pyridine-3-carboxamide], the pIC50 in assay [1] (setting [3]) is ≥ 6.70; in assay [2] (TF-1, 3 h) it was ≥ 7.00. The IC50 in assay [1] (setting [5]) is ≤ 200 nM. Moreover, on DCN1 protein, the “% Adduct Formation” value was “+++ (MS Emax % adduct formation greater than 80.0 and less than or equal to 100.0)”.

On to `CCN1C(=O)[C@@H](NC(=O)c2cccc(C(F)(F)F)c2)[C@@H](c2ccc(F)cc2)c2c(C(=O)N(C)[C@H](C#N)CCN3CCC34COC4)nn(-c3ccccc3)c21` [Compound I-314], for which the pIC50 in assay [1] (setting [3]) was ≥ 6.70; in assay [1] (setting [4]) it was ≥ 6.70; in assay [2] (TF-1, 3 h) it was ≥ 7.00. In addition, at DCN1 protein, the “% Adduct Formation” value was “+++ (MS Emax % adduct formation greater than 80.0 and less than or equal to 100.0)”.

With `CCN1C(=O)[C@@H](NC(=O)c2cccc(C(F)(F)F)c2)[C@@H](c2ccc(F)cc2)c2c(C(=O)N(C)[C@@H](C)C#N)nn(C3CCOCC3)c21` [Compound I-368], the pIC50 was ≥ 6.70 in assay [1] (setting [3]); ≥ 6.70 in assay [1] (setting [4]); ≥ 7.00 in assay [2] (TF-1, 3 h). Besides, the “% Adduct Formation” value on DCN1 protein is “+++ (MS Emax % adduct formation greater than 80.0 and less than or equal to 100.0)”.

`CCN1C(=O)[C@@H](NC(=O)c2cccc(C(F)(F)F)c2)[C@@H](c2ccc(C)cc2)c2c(C(=O)N(C)C(C)C#N)nn(C3CC3)c21` (stereo partly drawn) [Compound I-306]: the pIC50 in assay [1] (setting [3]) was ≥ 6.70; in assay [1] (setting [4]), ≥ 6.70; in assay [2] (TF-1, 3 h), ≥ 7.00. Further, the “% Adduct Formation” value on DCN1 protein is “++ (MS Emax % adduct formation greater than 30.0 and less than or equal to 80.0)”.
